Earlier results as cited in patent US20240131064A1, “TREATMENT OF CANCER PATIENTS WITH TUMOR INFILTRATING LYMPHOCYTE THERAPIES IN COMBINATION WITH BRAF INHIBITORS AND/OR MEK INHIBITORS” (Iovance Biotherapeutics, Inc., priority 2020, published 2024).
Like-named read-outs stand apart in the source and are kept apart here.

Columns and labels:
[1] = tested on: BRAF V600E mutation-positive, unresectable or metastatic melanoma; settings: 187 patients treated, no prior BRAF or MEK inhibitor
[2] = percent of patients

## CC(C)(C)c1nc(-c2cccc(NS(=O)(=O)c3c(F)cccc3F)c2F)c(-c2ccnc(N)n2)s1 [dabrafenib]
[1]
  median duration of response (DOR): 5.6 months

## des-alanyl-1, serine-125 human IL-2 [aldesleukin]
Metastatic melanoma; high-dose aldesleukin, metastatic melanoma
  overall objective response rate (ORR): 16%
Metastatic melanoma; high-dose aldesleukin, treated patients with metastatic melanoma
  durable complete tumor regressions (CRs): up to 6%

## ipilimumab: CTLA-4 inhibitor, heavy chain SEQ ID NO:208, light chain SEQ ID NO:209
[2]
  Treatment-related adverse events leading to discontinuation of therapy: 14.8%

## nivolumab: PD-1 inhibitor, heavy chain SEQ ID NO:158, light chain SEQ ID NO:159
Metastatic melanoma; metastatic melanoma
  rate of durable responses relative to aldesleukin treatment: approximately double
Metastatic melanoma; previously treated patients
  ORR: 32%
[2]
  Treatment-related adverse events leading to discontinuation of therapy: 7.7%

## pembrolizumab: PD-1 inhibitor, heavy chain SEQ ID NO:168, light chain SEQ ID NO:169
Metastatic melanoma; following prior therapy with ipilimumab
  ORR: 21%
Metastatic melanoma; metastatic melanoma
  rate of durable responses relative to aldesleukin treatment: approximately double
